Data from PMC3429506, “Screening for Novel LRRK2 Inhibitors Using a High-Throughput TR-FRET Cellular Assay for LRRK2 Ser935 Phosphorylation” (PLoS ONE, 2012).

Tests used:
[1] = tested on: LRRK2 Ser935 phosphorylation; test: TR-FRET cellular assay for LRRK2 Ser935 phosphorylation (cell background not given); format: cell-based, human; settings: result in words
Experimental: Transduced cells in the 384-well assay plate were incubated with indicated inhibitors (5X, 5 µL/well) for 60 to 90 minutes. During this time, 6 X lysis buffer (Life Technologies) was supplemented with 30 nM Tb-labeled anti-LRRK2 pSer935 antibody and both protease and phosphatase inhibitor cocktails (Sigma). The complete 6 X lysis buffer was added to each well (5 µL/well) and the plates were incubated at room temperature in the dark for 2 hours. The plate was then read on an EnVision® multilabel plate reader (PerkinElmer, Waltham, MA) with excitation at 340 nm and emission 520 nm and 495 nm. […]. A sigmoidal dose-response equation with varying slope was used to fit the data and generate IC50 values. […]. The IC50 values reported in Table 1 are the averaged numbers from three independent experiments.

[2] = target: T1, LRRK2 wild-type (Homo sapiens, UniProt Q5S007); test: TR-FRET cellular assay for LRRK2 Ser935 phosphorylation, U-2 OS cells, BacMam LRRK2-GFP wild-type; format: cell-based; set-up: This high-throughput assay utilizes cells expressing full-length human LRRK2 with a C-terminal GFP tag (LRRK2-GFP); host or cells: U-2 OS cells transduced with BacMam; settings: WT, +/- SD, three independent experiments, * = partial inhibition, read-out: IC50, TR-FRET cell-based assay for Ser935 phosphorylation of LRRK2
T1 sequence (Q5S007 whole entry): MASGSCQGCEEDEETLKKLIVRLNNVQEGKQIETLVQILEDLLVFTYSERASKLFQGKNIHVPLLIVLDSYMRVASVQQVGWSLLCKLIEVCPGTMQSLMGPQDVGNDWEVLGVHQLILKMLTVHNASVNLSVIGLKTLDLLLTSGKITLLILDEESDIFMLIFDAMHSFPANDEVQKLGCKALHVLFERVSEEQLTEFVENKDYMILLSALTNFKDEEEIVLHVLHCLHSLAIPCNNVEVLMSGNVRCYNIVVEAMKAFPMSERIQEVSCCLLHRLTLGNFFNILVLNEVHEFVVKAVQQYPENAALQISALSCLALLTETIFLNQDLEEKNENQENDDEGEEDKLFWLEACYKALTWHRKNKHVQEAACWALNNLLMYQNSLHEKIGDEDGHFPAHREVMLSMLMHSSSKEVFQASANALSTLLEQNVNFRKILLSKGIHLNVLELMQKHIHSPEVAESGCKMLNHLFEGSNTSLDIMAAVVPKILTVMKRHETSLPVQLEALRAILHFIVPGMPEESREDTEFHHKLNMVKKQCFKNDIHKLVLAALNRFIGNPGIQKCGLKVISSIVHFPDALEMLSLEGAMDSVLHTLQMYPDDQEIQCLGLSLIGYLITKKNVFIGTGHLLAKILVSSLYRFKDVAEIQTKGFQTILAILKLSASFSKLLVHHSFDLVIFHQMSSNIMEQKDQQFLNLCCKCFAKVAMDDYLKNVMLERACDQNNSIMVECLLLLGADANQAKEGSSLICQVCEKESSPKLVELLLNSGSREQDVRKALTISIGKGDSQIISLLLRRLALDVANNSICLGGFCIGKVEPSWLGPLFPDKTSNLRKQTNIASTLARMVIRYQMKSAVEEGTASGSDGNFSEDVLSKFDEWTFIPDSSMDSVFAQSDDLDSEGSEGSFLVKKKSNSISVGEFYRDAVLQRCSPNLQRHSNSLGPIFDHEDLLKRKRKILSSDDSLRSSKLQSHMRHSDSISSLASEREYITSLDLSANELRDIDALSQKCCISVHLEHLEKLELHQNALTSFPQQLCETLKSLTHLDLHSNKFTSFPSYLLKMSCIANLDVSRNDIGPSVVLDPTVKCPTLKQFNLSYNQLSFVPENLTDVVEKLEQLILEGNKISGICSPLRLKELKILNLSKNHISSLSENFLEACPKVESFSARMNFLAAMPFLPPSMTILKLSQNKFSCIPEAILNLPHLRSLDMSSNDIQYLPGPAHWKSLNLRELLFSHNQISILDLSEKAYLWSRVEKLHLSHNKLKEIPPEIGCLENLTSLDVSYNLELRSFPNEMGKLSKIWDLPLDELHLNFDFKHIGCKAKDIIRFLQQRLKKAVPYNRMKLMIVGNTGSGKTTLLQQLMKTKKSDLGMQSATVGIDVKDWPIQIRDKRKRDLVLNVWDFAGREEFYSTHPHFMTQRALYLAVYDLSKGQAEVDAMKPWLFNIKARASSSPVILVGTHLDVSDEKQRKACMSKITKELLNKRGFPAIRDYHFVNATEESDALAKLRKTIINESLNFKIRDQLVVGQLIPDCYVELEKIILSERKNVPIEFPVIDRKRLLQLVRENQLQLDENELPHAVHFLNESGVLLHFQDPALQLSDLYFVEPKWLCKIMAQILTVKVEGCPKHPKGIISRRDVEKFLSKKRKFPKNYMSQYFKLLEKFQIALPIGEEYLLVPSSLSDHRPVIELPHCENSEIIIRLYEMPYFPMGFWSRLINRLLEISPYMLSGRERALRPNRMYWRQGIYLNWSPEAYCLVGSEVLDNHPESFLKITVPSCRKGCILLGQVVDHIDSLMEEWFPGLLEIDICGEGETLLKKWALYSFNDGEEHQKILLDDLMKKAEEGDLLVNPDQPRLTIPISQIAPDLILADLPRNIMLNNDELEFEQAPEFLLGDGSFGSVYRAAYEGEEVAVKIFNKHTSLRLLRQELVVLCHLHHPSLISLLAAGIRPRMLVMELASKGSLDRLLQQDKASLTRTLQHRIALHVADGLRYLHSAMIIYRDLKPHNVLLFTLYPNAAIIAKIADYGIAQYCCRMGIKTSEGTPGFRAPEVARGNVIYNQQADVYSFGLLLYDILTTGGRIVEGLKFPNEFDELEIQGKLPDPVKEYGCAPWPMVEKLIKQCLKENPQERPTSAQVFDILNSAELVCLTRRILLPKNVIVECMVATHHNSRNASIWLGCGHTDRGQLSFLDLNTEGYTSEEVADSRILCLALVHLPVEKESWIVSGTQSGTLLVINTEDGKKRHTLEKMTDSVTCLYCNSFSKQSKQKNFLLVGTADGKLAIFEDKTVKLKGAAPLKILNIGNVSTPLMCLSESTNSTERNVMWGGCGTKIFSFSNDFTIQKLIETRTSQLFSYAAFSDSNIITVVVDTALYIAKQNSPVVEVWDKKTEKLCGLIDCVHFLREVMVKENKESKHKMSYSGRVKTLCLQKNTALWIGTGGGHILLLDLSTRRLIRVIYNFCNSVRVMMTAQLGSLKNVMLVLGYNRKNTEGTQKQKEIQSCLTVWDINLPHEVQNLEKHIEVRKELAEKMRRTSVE
Experimental: (§1) U-2 OS cells are maintained in growth medium (McCoy’s 5A supplemented with 10% dialyzed FBS (dFBS), 10 mM HEPES, 0.1 mM NEAA, 1 mM Sodium Pyruvate, and 100 U/mL Penicillin/100 µg/mL Streptomycin). HEK293T cells are maintained in DMEM with 10% dFBS, 10 mM HEPES, 0.1 mM NEAA and 100 U/mL Penicillin/100 µg/mL Streptomycin. SH-SY5Y cells are maintained in DMEM/F-12 medium supplemented with 10% dFBS and 100 U/mL Penicillin/100 µg/mL Streptomycin. […] GIBCO® human neural stem cells (hNSCs) were propagated as an adherent culture in StemPro® NSC SFM according to the manufacturer’s recommended protocol (Life Technologies). For BacMam transduction of U-2 OS and HEK293T, cells were harvested, mixed with various amounts of BacMam LRRK2-GFP reagent (v/v) and plated onto 6-well plates. […] Cells were assayed in 384-well format (∼20,000 cells/well) 48 hours post-transduction as above.
(§2) Transduced cells in the 384-well assay plate were incubated with indicated inhibitors (5X, 5 µL/well) for 60 to 90 minutes. During this time, 6 X lysis buffer (Life Technologies) was supplemented with 30 nM Tb-labeled anti-LRRK2 pSer935 antibody and both protease and phosphatase inhibitor cocktails (Sigma). The complete 6 X lysis buffer was added to each well (5 µL/well) and the plates were incubated at room temperature in the dark for 2 hours. […] A sigmoidal dose-response equation with varying slope was used to fit the data and generate IC50 values. Z′-factor values were calculated as: Z′-factor = 1 - [(3 × stdevno virus +3 × stdevmaxvirus)/(avgmaxvirus – avgno-virus)]. The IC50 values reported in Table 1 are the averaged numbers from three independent experiments.

[3] = target: T1, LRRK2 wild-type; test: TR-FRET cellular assay for LRRK2 Ser935 phosphorylation, SH-SY5Y cells, BacMam LRRK2-GFP wild-type; format: cell-based; set-up: This high-throughput assay utilizes cells expressing full-length human LRRK2 with a C-terminal GFP tag (LRRK2-GFP); host or cells: SH-SY5Y cells transduced with BacMam; settings: WT, +/- SD, three independent experiments, * = partial inhibition, read-out: IC50, TR-FRET cell-based assay for Ser935 phosphorylation of LRRK2
Experimental: as §1, §2

[4] = target: T2, LRRK2 G2019S (Homo sapiens, UniProt Q5S007, G2019S); test: TR-FRET cellular assay for LRRK2 Ser935 phosphorylation, SH-SY5Y cells, BacMam LRRK2-GFP G2019S (incl. Tocriscreen Mini library screen and follow-up); format: cell-based; set-up: This high-throughput assay utilizes cells expressing full-length human LRRK2 with a C-terminal GFP tag (LRRK2-GFP); host or cells: SH-SY5Y cells transduced with BacMam; settings: for IC50: three independent experiments
T2 sequence (Q5S007 whole entry G2019S): as the sequence (Q5S007 whole entry) above, with G2019S counted along it
Experimental: as §1, §2
40 nL of 10 mM Tocris library compounds in DMSO were dispensed into each well of the assay plate by the ECHO system. Equal volumes of DMSO were dispensed into the control wells. Cells were incubated with compounds for 90 to 120 min prior to cell lysis and detection as described above. The percent inhibition is calculated as: [(average emission ratios of DMSO control wells – average emission ratios of compound wells)/(average emission ratios of DMSO control wells – average emission ratios of LRRK2-IN-1 treated wells)] * 100. For the dose-response follow-up studies, fresh compound DMSO stock solutions were prepared from powder. […] Z′-factor value was calculated as: Z′-factor = 1 - [(3 × stdevLRRK2-IN-1+3 × stdevDMSO)/(avgDMSO – avgLRRK2-IN-1)]. The IC50 values reported in Table 2 are the averaged numbers from three independent experiments for both cellular and biochemical TR-FRET assays and one representative result of two independent experiments for the cytotoxicity assay.

[5] = target: T2, LRRK2 G2019S; test: TR-FRET cellular assay for LRRK2 Ser935 phosphorylation, U-2 OS cells, BacMam LRRK2-GFP G2019S; format: cell-based; set-up: This high-throughput assay utilizes cells expressing full-length human LRRK2 with a C-terminal GFP tag (LRRK2-GFP); host or cells: U-2 OS, SH-SY5Y, HEK293T cells or human neural stem cells transduced with BacMam; settings: G2019S, +/- SD, three independent experiments, * = partial inhibition, read-out: IC50, TR-FRET cell-based assay for Ser935 phosphorylation of LRRK2
Experimental: as §1, §2

[6] = target: T2, LRRK2 G2019S; test: In vitro biochemical LRRK2 TR-FRET activity assay
Experimental: The Biochemical LRRK2 TR-FRET activity assay was performed according to the manufacture recommended assay protocol (Life Technologies). […] After incubation at room temperature for 1 hour, the kinase reactions were stopped by addition of 10 µL of 20 mM EDTA and 4 nM Tb-anti-pERM (pLRRKtide) antibody in TR-FRET dilution buffer (Life Technologies). After a 30 minute incubation at room temperature, TR-FRET measurements were obtained on a BMG PHERAstar plate reader using LanthaScreen® filters and settings. A 16 point, 2-fold dilution series of each compound was tested in triplicate at each concentration and assays were also performed in triplicate.

[7] = in vitro; settings: human
[8] = target: T1, LRRK2 wild-type; test: TR-FRET cellular assay for LRRK2 Ser935 phosphorylation, HEK293T cells, BacMam LRRK2-GFP wild-type; set-up: This high-throughput assay utilizes cells expressing full-length human LRRK2 with a C-terminal GFP tag (LRRK2-GFP); host or cells: HEK293T cells transduced with BacMam; settings: WT, +/- SD, three independent experiments, * = partial inhibition, read-out: IC50, TR-FRET cell-based assay for Ser935 phosphorylation of LRRK2
Experimental: as §1, §2

[9] = target: T2, LRRK2 G2019S; test: TR-FRET cellular assay for LRRK2 Ser935 phosphorylation, HEK293T cells, BacMam LRRK2-GFP G2019S; set-up: This high-throughput assay utilizes cells expressing full-length human LRRK2 with a C-terminal GFP tag (LRRK2-GFP); host or cells: HEK293T cells transduced with BacMam; settings: +/- SD, three independent experiments, * = partial inhibition, read-out: IC50, TR-FRET cell-based assay for Ser935 phosphorylation of LRRK2
Experimental: as §1, §2

[10] = SH-SY5Y, G2019S, +/- SD, * = partial inhibition, read-out: IC50, TR-FRET cell-based assay for Ser935 phosphorylation of LRRK2

SMILES: O=S(=O)(NCCNC/C=C/c1ccc(Br)cc1)c1cccc2cnccc12 [H-89]
- effect on the phosphorylation of Ser935 in the TR-FRET cellular assay [1]: no effect
- IC50 [2]: > 20 µM
- IC50 [3]: > 20 µM
- IC50 [4, 10]: > 20 µM
- IC50 [5]: > 20 µM

SMILES: O=Nc1c(-c2c(O)[nH]c3ccccc23)[nH]c2ccccc12 [Indirubin-3-monoxime, Indirubin-3′-monoxime]
- IC50 ([6]; LRRK2 G2019S, ATP 134 µM (Km,app), LRRKtide substrate, three independent experiments, read-out: Biochemical LRRK2 assay IC50 +/- SD): > 10 µM
- effect on LRRK2 activity in vitro ([6]; result in words): did not repress LRRK2 activity in vitro
- IC50 [7]: > 20 µM
- IC50 [2]: 3.78 µM
- IC50 [3]: > 10 µM
- IC50 [4, 10]: 6.15 µM
- inhibition at 20 µM ([4]; SH-SY5Y, Tocriscreen Mini library screen, 20 µM, SH-SY5Y G2019S, relative to LRRK2-IN-1 control, read-out: %Inhibition Initial screen): 63.5%
- Cellular TR-FRET Assay Max % Inhibition ([4]; dose-response follow-up, SH-SY5Y G2019S, 90 min): 64%
- IC50 ([4]; dose-response follow-up, SH-SY5Y G2019S, read-out: Cellular TR-FRET Assay IC50 +/-SD): 4.4 µM
- IC50 [8]: 3.68 µM
- IC50 [9]: 2.78 µM
- IC50 [5]: 1.93 µM
